From paper PMC10777848 (Antimicrobial Agents and Chemotherapy, 2023)
“And” between values parts separate entries of the source, which are not always exact repeats. Identical values can stand only once. Like-named read-outs stand apart in the source and are kept apart here.

Experiments:
[1] = tested on: A. baumannii; test: Murine neutropenic lung infection model, PK/PD exposure-response; assay type: in vivo, CD-1 mice
Experimental: (§1) Magnitudes associated with 1-log10 and 2-log10 CFU reduction from baseline at 24 hours as well as the exposure required for an 80% reduction in bacterial burden (EC80) were determined from the fitted function.

[2] = tested on: A. baumannii; assay type: in vivo; conditions: thigh model; oral 200 mg/kg bid; A. baumannii ARC2058; 24 h
[3] = Distribution into mouse ELF (plasma and BAL sampling); conditions: 100:25 mg/kg sulbactam:durlobactam SC, neutropenic mice infected with ARC2058
[4] = tested on: A. baumannii; assay type: in vivo
Experimental: as §1

[5] = tested on: A. baumannii isolates; test: Broth MIC testing (CLSI methodology); assay type: cell-based; conditions: Acinetobacter baumannii, modal MIC, combination = sulbactam with fixed 4 µg/mL durlobactam
Text: All strains with an “ARC” designation are part of the Entasis collection of clinical isolates. All isolates have been previously characterized by whole genome sequencing.

[6] = tested on: 4,038 recent, global, clinical isolates of A. baumannii; parameters: method as in PMID 36005804; conditions: 4,038 global clinical isolates, cited from earlier work
[7] = parameters: method as in data on file Entasis Therapeutics; conditions: mean of mouse plasma protein unbound fractions ex vivo, 0.4 µM to 50 µM; ref data on file Entasis Therapeutics; cited from earlier work
[8] = Population PK in infected neutropenic mice (two-compartment model)
Text: As the plasma PK of neutropenic lung-infected animals matched that of thigh-infected animals, the thigh-infected PK was used for the development of the population PK model and subsequent exposure estimates for doses used in the PK/PD exposure-response analyses. Pharmacokinetic models were fit to time vs. drug concentration profiles generated in infected mice using Phoenix6.2 WinNonLin and NLME. […] Predicted exposures were utilized in the PK/PD analyses as all dosing solutions tested were within the variability of the bioanalytical method (20%).

[9] = tested on: A. baumannii; test: Murine neutropenic thigh and lung models taken together; assay type: in vivo, CD-1 mice
Experimental: as §1

[10] = tested on: A. baumannii; conditions: in vitro pharmacodynamic models; cited from earlier work
[11] = based on total ELF and plasma AUC exposures; cited from earlier work
[12] = tested on: A. baumannii; parameters: method as in PMID 34349751; conditions: cited from earlier work
[13] = in vivo; conditions: CD-1, mouse
[14] = co-modeled thigh (n = 6 strains), sulbactam alone and combined with durlobactam
[15] = thigh, ARC2058, sulbactam only, 24 h
[16] = thigh, ARC3484, sulbactam:durlobactam 4:1 dosing, 24 h
[17] = thigh, ARC5081, sulbactam:durlobactam 4:1 dosing, 24 h
[18] = thigh, ARC5091, sulbactam:durlobactam 4:1 dosing, 24 h
[19] = thigh, mean of individual CRAB strains, 4:1 dosing
[20] = sulbactam and durlobactam co-administered 4:1 SC, predicted value (% coefficient of variance)
[21] = thigh model, A. baumannii ARC2058, SC q6h, 24 h
[22] = lung model, A. baumannii ARC2058, SC q6h, 24 h
[23] = thigh (4:1 dose), 5 strains, SUL mean exposure 32.9 to 43.5%T>MIC, 24 h
[24] = mean of thigh 4:1, lung 4:1 and thigh fixed SUL dose

Question: What does the source list for C[C@H]1COc2c(N3CCN(C)CC3)c(F)cc3c(=O)c(C(=O)O)cn1c23 [levofloxacin]?
Answer: log10 CFU/g reduction (positive control) ([1]; lung model, oral 200 mg/kg bid, A. baumannii ARC2058, 24 h): 1.8 log10 CFU/g; change in log10 CFU (positive control) [2]: −2.4 log10 CFU

Question: For CC1(C)[C@H](C(=O)O)N2C(=O)C[C@H]2S1(=O)=O [Sulbactam, sulbactam], which “AUC, ELF” value [3] is on record?
Answer: 10300 ng·h/mL

Question: And the “AUC, Plasma” value [3]?
Answer: 32300 ng·h/mL

Question: And the “Concentration, ELF” value ([3]; 1 h)?
Answer: 5700 ± 1150 ng/mL

Question: What about the “Concentration, Plasma” value ([3]; 1 h) of the same molecule?
Answer: 18550 ± 5870 ng/mL

Question: And the “Concentration, ELF” value ([3]; 3 h)?
Answer: 540 ± 120 ng/mL

Question: And the “Concentration, Plasma” value ([3]; 3 h)?
Answer: 1690 ± 560 ng/mL

Question: What about the “Concentration, ELF” value ([3]; 6 h) of the same molecule?
Answer: 290 ± 140 ng/mL

Question: What about the “Concentration, Plasma” value ([3]; 6 h) of the same molecule?
Answer: 100 ± 50 ng/mL

Question: What about the “Concentration, ELF” value ([3]; 12 h) of the same molecule?
Answer: 60 ± 10 ng/mL

Question: What about the “Concentration, Plasma” value ([3]; 12 h) of the same molecule?
Answer: 20 ± 10 ng/mL

Question: What about the “Sulbactam %fT>MIC for 2-log10 CFU reduction from baseline” value [4, 14] of the same molecule?
Answer: 38.2%

Question: What about the “Sulbactam %fT>MIC for EC80” value [4, 14] of the same molecule?
Answer: 44.1%

Question: And the “Sulbactam %fT>MIC for 1-log10 CFU reduction from baseline” value [4, 15]?
Answer: 20.5%

Question: What about the “Sulbactam %fT>MIC for 2-log10 CFU reduction from baseline” value [4, 15] of the same molecule?
Answer: 31.5%

Question: What about the “Sulbactam %fT>MIC for EC80” value [4, 15] of the same molecule?
Answer: 47.0%

Question: What about the “Sulbactam %fT>MIC for 2-log10 CFU reduction from baseline” value [4, 16] of the same molecule?
Answer: 40.2%

Question: What about the “Sulbactam %fT>MIC for EC80” value [4, 16] of the same molecule?
Answer: 42.8%

Question: What about the “Sulbactam %fT>MIC for EC80” value ([4]; thigh, ARC3486, sulbactam:durlobactam 4:1 dosing, 24 h) of the same molecule?
Answer: 55.3%

Question: What about the “Sulbactam %fT>MIC for EC80” value ([4]; thigh, ARC5079, sulbactam:durlobactam 4:1 dosing, 24 h) of the same molecule?
Answer: 53.2%

Question: What about the “Sulbactam %fT>MIC for 1-log10 CFU reduction from baseline” value [4, 17] of the same molecule?
Answer: 26.3%

Question: And the “Sulbactam %fT>MIC for 2-log10 CFU reduction from baseline” value [4, 17]?
Answer: 28.8%

Question: What about the “Sulbactam %fT>MIC for EC80” value [4, 17] of the same molecule?
Answer: 32.0%

Question: And the “Sulbactam %fT>MIC for 1-log10 CFU reduction from baseline” value [4, 18]?
Answer: 26.7%

Question: And the “Sulbactam %fT>MIC for 2-log10 CFU reduction from baseline” value [4, 18]?
Answer: 29.3%

Question: What about the “Sulbactam %fT>MIC for EC80” value [4, 18] of the same molecule?
Answer: 30.4%

Question: And the “Sulbactam %fT>MIC for 2-log10 CFU reduction from baseline, Mean ± SD” value [4, 19]?
Answer: 38.6 ± 10.0%

Question: And the “Sulbactam %fT>MIC for EC80, Mean ± SD” value [4, 19]?
Answer: 42.7 ± 11.6%

Question: And the MIC ([5]; A. baumannii ARC2058)?
Answer: 2 µg/mL

Question: What about the MIC ([5]; A. baumannii ARC3484) of the same molecule?
Answer: 16 µg/mL

Question: What about the MIC ([5]; A. baumannii ARC3486) of the same molecule?
Answer: 32 µg/mL

Question: And the MIC ([5]; A. baumannii ARC5077)?
Answer: 16 µg/mL

Question: And the MIC ([5]; A. baumannii ARC5079)?
Answer: 32 µg/mL

Question: And the MIC ([5]; A. baumannii ARC5081)?
Answer: 16 µg/mL

Question: What about the MIC ([5]; A. baumannii ARC5091) of the same molecule?
Answer: 8 µg/mL

Question: What about the MIC ([5]; A. baumannii ARC5950) of the same molecule?
Answer: 64 µg/mL

Question: And the MIC ([5]; A. baumannii ARC5954)?
Answer: 32 µg/mL

Question: What about the MIC ([5]; A. baumannii ARC5955) of the same molecule?
Answer: 64 µg/mL

Question: And the MIC90 of sulbactam ([6]; sulbactam alone)?
Answer: 64 µg/mL

Question: What about the MIC90 of sulbactam ([6]; with the addition of durlobactam) of the same molecule?
Answer: 2 µg/mL

Question: And the murine unbound fraction [7]?
Answer: 100%

Question: What about the “V1 (central compartment volume of distribution)” value ([8]; sulbactam alone, SC, predicted value) of the same molecule?
Answer: 1.8847 L/kg

Question: And the “Ka (absorption rate)” value ([8]; sulbactam alone, SC, predicted value (% coefficient of variance))?
Answer: 6 (12.5) 1/hr

Question: What about the “Ka (absorption rate)” value [8, 20] of the same molecule?
Answer: 12 (8.4) 1/hr

Question: And the “V1 (central compartment volume of distribution)” value [8, 20]?
Answer: 1.0177 (7.0) L/kg

Question: What about the “sulbactam fT>MIC at which 1-log10 CFU reduction over 24 hours can be realized” value ([9]; both thigh and lung models, in combination with durlobactam, co-modeled across strains) of the same molecule?
Answer: exceeds 50%

Question: What about the “sulbactam fT>MIC at which 2-log10 CFU reduction was achieved” value ([9]; present in vivo study, sulbactam-susceptible isolate ARC2058) of the same molecule?
Answer: exceeded 50%

Question: What does the source list for C[C@@H](O)[C@H]1C(=O)N2C(C(=O)O)=C(S[C@@H]3CN[C@H](C(=O)N(C)C)C3)[C@H](C)[C@H]12 [Meropenem, meropenem]?
Answer: Meropenem %fT>MIC for 1-log10 CFU/g reduction from baseline [4, 21]: 27.2%; Meropenem %fT>MIC for 2-log10 CFU/g reduction from baseline [4, 21]: 32.4%; Meropenem %fT>MIC for EC80 [4, 21]: 36.0%; Meropenem %fT>MIC for 1-log10 CFU/g reduction from baseline [1, 22]: 29.4%; Meropenem %fT>MIC for 2-log10 CFU/g reduction from baseline [1, 22]: 32.2%; Meropenem %fT>MIC for EC80 [1, 22]: 39.7%

Question: Which “AUC, ELF” value [3] does the source give for CC1=C[C@@H]2CN(C(=O)N2OS(=O)(=O)O)[C@@H]1C(N)=O [Durlobactam, durlobactam] here?
Answer: 4400 ng·h/mL

Question: And the “Concentration, ELF” value ([3]; 1 h)?
Answer: 2480 ± 910 ng/mL

Question: And the “Concentration, ELF” value ([3]; 3 h)?
Answer: 260 ± 150 ng/mL

Question: And the “Concentration, ELF” value ([3]; 6 h)?
Answer: 2 ± 1 ng/mL

Question: What about the “Concentration, Plasma” value ([3]; 6 h) of the same molecule?
Answer: 30 ± 10 ng/mL

Question: What about the “Concentration, ELF” value ([3]; 12 h) of the same molecule?
Answer: BLQ

Question: And the “Co-modeled durlobactam fAUC/MIC ratio for EC80” value ([4]; mouse, in vivo)?
Answer: 38.2

Question: What about the “Co-modeled durlobactam fAUC/MIC ratio for 1-log10 CFU reduction from baseline” value [4, 23] of the same molecule?
Answer: 8.0

Question: What about the “Co-modeled durlobactam fAUC/MIC ratio for 2-log10 CFU reduction from baseline” value [4, 23] of the same molecule?
Answer: 16.0

Question: What about the “Co-modeled durlobactam fAUC/MIC ratio for EC80” value [4, 23] of the same molecule?
Answer: 15.1

Question: What about the “durlobactam AUC/MIC associated with net 1-log10 CFU reduction over 24 hours” value [10] of the same molecule?
Answer: > 10 and 10

Question: What about the “ELF penetration observed clinically” value [11] of the same molecule?
Answer: 37%

Question: What about the “Co-modeled durlobactam fAUC/MIC ratio for 1-log10 CFU reduction from baseline” value ([1]; mouse, in vivo) of the same molecule?
Answer: 10.6

Question: What about the “Co-modeled durlobactam fAUC/MIC ratio for 2-log10 CFU reduction from baseline” value ([1]; mouse, in vivo) of the same molecule?
Answer: 22.4

Question: And the “Co-modeled durlobactam fAUC/MIC ratio for EC80” value ([1]; mouse, in vivo)?
Answer: 78.6

Question: What about the “intrinsic antibacterial activity against A. baumannii on its own” value [12] of the same molecule?
Answer: no significant intrinsic antibacterial activity

Question: What about the murine unbound fraction [7] of the same molecule?
Answer: 100%

Question: What about the Kp ([13]; epithelial lining fluid (ELF) / plasma, subcutaneous) of the same molecule?
Answer: 0.63

Question: And the AUC ([13]; in vivo, sc, 25 mg/kg)?
Answer: 7000 ng·h/mL

Question: And the Kp ([13]; in vivo, sc, 25 mg/kg)?
Answer: 0.63

Question: And the concentration at 1 h ([13]; in vivo, sc, 25 mg/kg)?
Answer: 4070 ± 1790 ng/mL

Question: And the concentration at 3 h ([13]; in vivo, sc, 25 mg/kg)?
Answer: 330 ± 130 ng/mL

Question: And the concentration at 12 h ([13]; in vivo, sc, 25 mg/kg)?
Answer: 10 ± 1 ng/mL

Question: What about the “Cl1 (clearance of central compartment)” value [8, 20] of the same molecule?
Answer: 3.0747 (7.3) L/kg/h

Question: And the “Ka (absorption rate)” value [8, 20]?
Answer: 13.5 (32.6) 1/hr

Question: And the “V1 (central compartment volume of distribution)” value [8, 20]?
Answer: 1.2508 (8.4) L/kg

Question: And the “durlobactam fAUC/MIC0-24 at which an additional log10 CFU reduction can be realized” value ([9]; both thigh and lung models, in combination with sulbactam)?
Answer: ~ 30

Question: And the “durlobactam fAUC/MIC0-24 at which 1-log10 CFU reduction over 24 hours can be realized” value ([9]; both thigh and lung models, in combination with sulbactam, co-modeled across strains)?
Answer: 10 and ~ 10

Question: And the “Durlobactam fAUC/MIC ratio for 1-log10 CFU reduction from baseline, Mean ± SD” value [9, 24]?
Answer: 8.7 ± 1.7

Question: And the “Durlobactam fAUC/MIC ratio for 2-log10 CFU reduction from baseline, Mean ± SD” value [9, 24]?
Answer: 23.4 ± 7.9

Question: What about the “Durlobactam fAUC/MIC ratio for EC80, Mean ± SD” value [9, 24] of the same molecule?
Answer: 44.0 ± 32.1
